Source: US11272709B2, “Amidine substituted benzoyl derivatives useful as herbicides” (Syngenta Participations AG, priority 2018, dated 2022)

Experiments:
Format in all cases: in vivo
Conditions in all cases: evaluated after 13 days
Setaria faberi (SETFA) [1] = experiment: Pre-emergence herbicidal glasshouse test, Setaria faberi (SETFA)
Description: (§1) Seeds of a variety of test species are sown in standard soil in pots (Lolium perenne (LOLPE), Amaranthus retoflexus (AMARE), Abutilon theophrasti (ABUTH), Setaria faberi (SETFA), Echinochloa crus-galli (ECHCG), Ipomoea hederacea (IPOHE)). After cultivation for one day (pre-emergence) or after 8 days cultivation (post-emergence) under controlled conditions in a glasshouse (at 24/16° C., day/night; 14 hours light; 65% humidity), the plants are sprayed with an aqueous spray solution derived from the formulation of the technical active ingredient in acetone/water (50:50) solution containing 0.5% Tween 20 (polyoxyethelyene sorbitan monolaurate, CAS RN 9005-64-5). Compounds are applied at 500 g/h unless otherwise indicated. The test plants are then grown in a glasshouse under controlled conditions in a glasshouse (at 24/16° C., day/night; 14 hours light; 65% humidity) and watered twice daily. After 13 days for pre and post-emergence, the test is evaluated for the percentage damage caused to the plant. The biological activities are shown in the following table on a five point scale (5=80-100%; 4=60-79%; 3=40-59%; 2=20-39%; 1=0-19%).

[2] = test system: Echinochloa crus-galli (ECHCG); experiment: Post-emergence herbicidal glasshouse test, Echinochloa crus-galli (ECHCG)
Description: as §1

[3] = test system: Abutilon theophrasti (ABUTH); experiment: Post-emergence herbicidal glasshouse test, Abutilon theophrasti (ABUTH)
Description: as §1

Setaria faberi (SETFA) [4] = experiment: Post-emergence herbicidal glasshouse test, Setaria faberi (SETFA)
Description: as §1

[5] = test system: Amaranthus retoflexus (AMARE); experiment: Pre-emergence herbicidal glasshouse test, Amaranthus retoflexus (AMARE)
Description: as §1

[6] = test system: Amaranthus retoflexus (AMARE); experiment: Post-emergence herbicidal glasshouse test, Amaranthus retoflexus (AMARE)
Description: as §1

[7] = test system: Ipomoea hederacea (IPOHE); experiment: Pre-emergence herbicidal glasshouse test, Ipomoea hederacea (IPOHE)
Description: as §1

[8] = test system: Abutilon theophrasti (ABUTH); experiment: Pre-emergence herbicidal glasshouse test, Abutilon theophrasti (ABUTH)
Description: as §1

[9] = test system: Echinochloa crus-galli (ECHCG); experiment: Pre-emergence herbicidal glasshouse test, Echinochloa crus-galli (ECHCG)
Description: as §1

[10] = test system: Ipomoea hederacea (IPOHE); experiment: Post-emergence herbicidal glasshouse test, Ipomoea hederacea (IPOHE)
Description: as §1

SMILES	PRE Application SETFA, percentage damage (five point scale) (Setaria faberi (SETFA) [1]; 500 g/h)	POST Application ECHCG, percentage damage (five point scale) ([2]; 500 g/h)	POST Application ABUTH, percentage damage (five point scale) ([3]; 500 g/h)	POST Application SETFA, percentage damage (five point scale) (Setaria faberi (SETFA) [4]; 500 g/h)	PRE Application AMARE, percentage damage (five point scale) ([5]; 500 g/h)	POST Application AMARE, percentage damage (five point scale) ([6]; 500 g/h)	PRE Application IPOHE, percentage damage (five point scale) ([7]; 500 g/h)	PRE Application ABUTH, percentage damage (five point scale) ([8]; 500 g/h)	PRE Application ECHCG, percentage damage (five point scale) ([9]; 500 g/h)	POST Application IPOHE, percentage damage (five point scale) ([10]; 500 g/h)	PRE Application SETFA, percentage damage (five point scale) (Setaria faberi (SETFA) [1]; applied at 250 g/ha)	POST Application ECHCG, percentage damage (five point scale) ([2]; applied at 250 g/ha)	POST Application ABUTH, percentage damage (five point scale) ([3]; applied at 250 g/ha)	POST Application SETFA, percentage damage (five point scale) (Setaria faberi (SETFA) [4]; applied at 250 g/ha)	PRE Application AMARE, percentage damage (five point scale) ([5]; applied at 250 g/ha)	POST Application AMARE, percentage damage (five point scale) ([6]; applied at 250 g/ha)	PRE Application IPOHE, percentage damage (five point scale) ([7]; applied at 250 g/ha)	PRE Application ABUTH, percentage damage (five point scale) ([8]; applied at 250 g/ha)	PRE Application ECHCG, percentage damage (five point scale) ([9]; applied at 250 g/ha)	POST Application IPOHE, percentage damage (five point scale) ([10]; applied at 250 g/ha)
CN(C)C(=Nc1c(C(F)(F)F)ccc(C(=O)Nc2nnnn2C)c1Cl)C(F)(F)F [Compound 1.139]	5 (5=80-100%)	5 (5=80-100%)	5 (5=80-100%)	5 (5=80-100%)	5 (5=80-100%)	5 (5=80-100%)	5 (5=80-100%)	5 (5=80-100%)	5 (5=80-100%)	4 (4=60-79%)										
CC(C)N(C)C=Nc1c(C(F)(F)F)ccc(C(=O)Nc2nnnn2C)c1Cl [Compound 1.140]	5 (5=80-100%)	5 (5=80-100%)	5 (5=80-100%)	5 (5=80-100%)	5 (5=80-100%)	5 (5=80-100%)	5 (5=80-100%)	5 (5=80-100%)	5 (5=80-100%)	5 (5=80-100%)										
CN(C=Nc1c(S(C)(=O)=O)ccc(C(=O)Nc2nnnn2C)c1Cl)CC(F)(F)F [Compound 1.142]											5 (5=80-100%)	5 (5=80-100%)	5 (5=80-100%)	5 (5=80-100%)	5 (5=80-100%)	5 (5=80-100%)	4 (4=60-79%)	5 (5=80-100%)	5 (5=80-100%)	5 (5=80-100%)
Cc1c(C(=O)Nc2nnnn2C)ccc(S(C)(=O)=O)c1N=CN(C)C(C)C [Compound 1.144]	5 (5=80-100%)	5 (5=80-100%)	5 (5=80-100%)	5 (5=80-100%)	5 (5=80-100%)	5 (5=80-100%)	5 (5=80-100%)	5 (5=80-100%)	5 (5=80-100%)	5 (5=80-100%)										
CN(C=Nc1c(S(C)(=O)=O)ccc(C(=O)Nc2nnnn2C)c1Cl)c1ccccc1 [Compound 1.145]	5 (5=80-100%)	5 (5=80-100%)	3 (3=40-59%)	5 (5=80-100%)	5 (5=80-100%)	4 (4=60-79%)	4 (4=60-79%)	5 (5=80-100%)	5 (5=80-100%)	4 (4=60-79%)										
CC(=Nc1c(C(F)(F)F)ccc(C(=O)Nc2nnnn2C)c1Cl)N(C)C [Compound 1.148]	5 (5=80-100%)	5 (5=80-100%)	4 (4=60-79%)	5 (5=80-100%)	5 (5=80-100%)	5 (5=80-100%)	5 (5=80-100%)	5 (5=80-100%)	5 (5=80-100%)	4 (4=60-79%)										
